# Experimental data taken from publication doi:10.1101/2025.07.03.663083, “TMC1 and TMC2 are cholesterol-dependent scramblases that regulate membrane homeostasis in auditory hair cells” (bioRxiv, 2025).
# Key:
# Assay in all cases: proteoliposome scramblase assay, dithionite and BSA back-extraction of NBD fluorescence
# Assay type in all cases: functional
# [1] = biological target: T1, FL CmTMC1 (Chelonia mydas, UniProt Z9P3M8BL59); conditions: labelled compound; POPC/POPE/POPS 2:1:1 with 10% cholesterol, pH 7.4, 25 °C; lipid translocation, no headgroup specificity
# T1 construct: full length, 1-955; His-GFP tag; Sf9 (baculovirus); reconstituted in liposomes
# T1 sequence (Z9P3M8BL59 1-955): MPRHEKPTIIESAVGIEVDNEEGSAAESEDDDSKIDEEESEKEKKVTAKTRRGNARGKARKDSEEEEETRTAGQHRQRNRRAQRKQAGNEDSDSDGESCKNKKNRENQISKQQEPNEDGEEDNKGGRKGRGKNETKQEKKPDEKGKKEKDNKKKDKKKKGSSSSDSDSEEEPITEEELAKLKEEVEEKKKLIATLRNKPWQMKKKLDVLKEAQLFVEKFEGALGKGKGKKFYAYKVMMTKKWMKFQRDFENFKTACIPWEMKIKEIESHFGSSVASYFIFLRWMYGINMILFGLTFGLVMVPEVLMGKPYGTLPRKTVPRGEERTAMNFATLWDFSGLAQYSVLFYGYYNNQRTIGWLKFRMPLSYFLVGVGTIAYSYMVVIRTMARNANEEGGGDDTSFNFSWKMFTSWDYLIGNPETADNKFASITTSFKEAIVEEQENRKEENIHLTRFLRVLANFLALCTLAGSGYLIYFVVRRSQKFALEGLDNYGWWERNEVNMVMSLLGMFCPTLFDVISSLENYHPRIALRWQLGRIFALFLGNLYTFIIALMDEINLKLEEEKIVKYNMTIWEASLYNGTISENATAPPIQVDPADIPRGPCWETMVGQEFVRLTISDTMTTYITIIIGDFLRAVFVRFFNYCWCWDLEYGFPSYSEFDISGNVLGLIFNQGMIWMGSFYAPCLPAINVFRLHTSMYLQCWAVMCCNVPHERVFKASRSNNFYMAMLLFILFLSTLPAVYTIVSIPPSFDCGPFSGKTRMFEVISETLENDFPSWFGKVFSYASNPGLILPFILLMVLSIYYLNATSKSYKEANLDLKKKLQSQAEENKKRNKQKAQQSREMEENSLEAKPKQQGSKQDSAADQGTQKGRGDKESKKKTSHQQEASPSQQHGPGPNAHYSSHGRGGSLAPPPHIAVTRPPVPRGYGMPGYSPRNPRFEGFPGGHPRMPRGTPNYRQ
# [2] = biological target: T2, MuTMC2 (truncated) (Melopsittacus undulatus, UniProt Z9DQS5U608); conditions: labelled compound; POPC/POPE/POPS […] with […] cholesterol, pH […] °C; lipid translocation, no headgroup specificity
# T2 construct: transmembrane core without N- and C-terminal domains; His-GFP tag kept; Sf9 (baculovirus); purified in DDM/CHS, reconstituted in liposomes
# T2 sequence (Z9DQS5U608 211-807): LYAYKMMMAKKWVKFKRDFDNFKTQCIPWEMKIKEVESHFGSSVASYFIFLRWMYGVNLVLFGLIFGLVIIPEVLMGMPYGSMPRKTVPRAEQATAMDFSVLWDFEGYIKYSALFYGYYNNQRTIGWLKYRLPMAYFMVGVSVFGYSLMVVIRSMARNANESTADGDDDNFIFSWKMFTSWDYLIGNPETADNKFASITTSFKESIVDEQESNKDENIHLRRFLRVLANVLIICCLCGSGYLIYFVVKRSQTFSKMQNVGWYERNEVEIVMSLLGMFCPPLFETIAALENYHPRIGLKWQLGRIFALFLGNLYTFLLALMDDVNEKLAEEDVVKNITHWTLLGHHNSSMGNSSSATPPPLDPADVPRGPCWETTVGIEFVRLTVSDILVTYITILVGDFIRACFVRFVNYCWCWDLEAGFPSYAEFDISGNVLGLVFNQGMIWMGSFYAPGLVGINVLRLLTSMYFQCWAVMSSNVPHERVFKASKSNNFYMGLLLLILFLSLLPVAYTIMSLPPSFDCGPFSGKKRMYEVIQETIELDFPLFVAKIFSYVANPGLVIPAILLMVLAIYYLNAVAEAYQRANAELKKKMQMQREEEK
# [3] = biological target: T3, CmTMC1 (truncated) (Chelonia mydas, UniProt Z9P3M8BL59); conditions: labelled compound; POPC/POPE/POPS 2:1:1 with 10% cholesterol, pH 7.4, 25 °C; lipid translocation, no headgroup specificity
# T3 construct: transmembrane core without N- and C-terminal domains; His-GFP tag kept; Sf9 (baculovirus); purified in DDM/CHS, reconstituted in liposomes
# T3 sequence (Z9P3M8BL59 230-828): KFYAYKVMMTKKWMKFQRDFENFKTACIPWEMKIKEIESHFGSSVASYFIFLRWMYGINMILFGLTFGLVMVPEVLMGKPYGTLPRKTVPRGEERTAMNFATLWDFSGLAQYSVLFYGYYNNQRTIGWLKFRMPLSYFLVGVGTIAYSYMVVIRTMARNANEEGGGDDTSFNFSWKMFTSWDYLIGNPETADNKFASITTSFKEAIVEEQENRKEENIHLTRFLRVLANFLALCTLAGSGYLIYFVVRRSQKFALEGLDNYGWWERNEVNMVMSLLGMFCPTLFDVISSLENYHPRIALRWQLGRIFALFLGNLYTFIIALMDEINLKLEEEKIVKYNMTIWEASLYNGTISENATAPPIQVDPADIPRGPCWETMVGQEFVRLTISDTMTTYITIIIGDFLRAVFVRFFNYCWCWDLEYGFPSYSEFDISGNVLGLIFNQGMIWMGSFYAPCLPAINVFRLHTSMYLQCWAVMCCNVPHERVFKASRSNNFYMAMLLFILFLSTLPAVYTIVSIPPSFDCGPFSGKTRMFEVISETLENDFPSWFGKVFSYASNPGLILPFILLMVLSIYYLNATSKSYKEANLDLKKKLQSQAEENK
# [4] = biological target: T4, FL MuTMC2 (Melopsittacus undulatus, UniProt Z9DQS5U608); conditions: labelled compound; POPC/POPE/POPS […] with […] cholesterol, pH […] °C; lipid translocation, no headgroup specificity
# T4 construct: full length, 1-928; His-GFP tag; Sf9 (baculovirus); reconstituted in liposomes
# T4 sequence (Z9DQS5U608 1-928): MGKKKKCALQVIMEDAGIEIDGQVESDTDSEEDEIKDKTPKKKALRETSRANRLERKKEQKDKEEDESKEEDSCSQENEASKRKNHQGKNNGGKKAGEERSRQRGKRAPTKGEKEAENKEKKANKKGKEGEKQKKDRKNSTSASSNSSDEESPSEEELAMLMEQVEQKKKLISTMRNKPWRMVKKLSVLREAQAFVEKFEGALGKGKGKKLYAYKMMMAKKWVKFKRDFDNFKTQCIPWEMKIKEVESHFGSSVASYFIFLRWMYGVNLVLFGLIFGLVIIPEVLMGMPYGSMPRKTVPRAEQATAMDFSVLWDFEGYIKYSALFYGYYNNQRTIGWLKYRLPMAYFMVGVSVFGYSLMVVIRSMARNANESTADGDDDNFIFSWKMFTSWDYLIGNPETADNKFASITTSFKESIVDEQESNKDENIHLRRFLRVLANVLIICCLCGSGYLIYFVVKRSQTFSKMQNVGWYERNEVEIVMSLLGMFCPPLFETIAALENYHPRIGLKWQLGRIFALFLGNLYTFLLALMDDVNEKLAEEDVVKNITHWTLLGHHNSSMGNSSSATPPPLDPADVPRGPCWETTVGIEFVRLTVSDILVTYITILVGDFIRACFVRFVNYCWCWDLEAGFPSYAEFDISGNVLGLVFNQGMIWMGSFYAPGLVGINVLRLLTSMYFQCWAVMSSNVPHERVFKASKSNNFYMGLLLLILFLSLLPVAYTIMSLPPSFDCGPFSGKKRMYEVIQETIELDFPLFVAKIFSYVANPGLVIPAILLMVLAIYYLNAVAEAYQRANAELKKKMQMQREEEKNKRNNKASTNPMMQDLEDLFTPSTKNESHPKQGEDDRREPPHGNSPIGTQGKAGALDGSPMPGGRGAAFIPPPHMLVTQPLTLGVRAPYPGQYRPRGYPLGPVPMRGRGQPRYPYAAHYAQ
smiles,measurement,setting,value
"CCCCCCCCCCCCCC(=O)OC[C@H](COP(=O)(O)OCCN)OC(=O)CCCCCNc1ccc([N+](=O)[O-])c2nonc12 [NBD-PE, 1-myristoyl-2-sn-glycero-3-phosphoethanolamine]","proteoliposome scramblase assay, dithionite and BSA back-extraction of NBD fluor",[1],no differences in PLS activity between truncated and FL CmTMC1 and MuTMC2
same,"proteoliposome scramblase assay, dithionite and BSA back-extraction of NBD fluor",[2],due to scrambling of the fluorescent NBD-PE lipids by the TMC proteins
same,"proteoliposome scramblase assay, dithionite and BSA back-extraction of NBD fluor",[3],due to scrambling of the fluorescent NBD-PE lipids by the TMC proteins
same,"proteoliposome scramblase assay, dithionite and BSA back-extraction of NBD fluor",[4],no differences in PLS activity between truncated and FL CmTMC1 and MuTMC2
